Assay results as given in patent US7985745B2, “Method for pain treatment” (Abbott Laboratories, priority 2006, dated 2011).
Like-named read-outs stand apart in the source and are kept apart here. Each block holds one compound with its values, some of them ahead of it.

Tests used:
histamine H4 receptor [1] = biological target: T1, histamine H4 receptor (Homo sapiens, UniProt Q9H3N8); assay: 3H-histamine competition binding assay, membranes of transfected HEK-293 cells
T1 construct: expressed in transfected cells; host or cells: HEK-293 cells, transient transfection with pCINeo vector; membranes
Description: In this assay, membranes were prepared from HEK-293 cells transiently transfected with the pCINeo expression vector harboring the histamine H4 receptor by homogenization of the cells on ice in TE buffer (50 mM Tris-HCl buffer, pH 7.4, containing 5 mM EDTA), 1 mM benzamidine, 2 μg/ml aprotinin, 1 μg/ml leupeptin, and 1 μg/ml pepstatin. The homogenate was centrifuged at 40,000 g for 20 minutes at 4° C. This step was repeated, and the resulting pellet was resuspended in TE buffer. Aliquots were frozen at −70° C. until needed. On the day of assay, membranes were thawed and diluted with TE buffer. Competition radioligand binding assays were performed with increasing concentrations of test compound in the presence of [^3H]-histamine incubated at 25° C. for 1 h in a total volume of 0.5 ml of 50 mM Tris, 5 mM EDTA, pH 7.4. All binding reactions were terminated by filtration under vacuum onto polyethylenimine (0.3%) presoaked Unifilters (PerkinElmer Life Sciences) or Whatman GF/B filters (Whatman, Clifton, N.J.) followed by three brief washes with 4 ml of ice-cold TE buffer. Bound radiolabel was determined by liquid scintillation counting. For all of the radioligand competition binding assays, IC50 values and Hill slopes were determined by Hill transformation of the data and Ki values were determined by the Cheng-Prusoff equation.

histamine H4 receptor [2] = biological target: T1, histamine H4 receptor; assay: FLIPR Ca2+ assay in HEK-293 cells stably expressing histamine H4 receptor and Gαqi5; format: cell-based; conditions: Kb for antagonists and inverse agonists, EC50 for partial agonists; block of histamine-induced Ca2+ increase
Excerpt: Histamine H4 receptors from mammalian species have been cloned. Methods to clone, express, and assess the potency and functional activity of such cloned genes are well known to those skilled in the art of molecular biology. […] Before testing, cells are loaded with a Ca^+2 sensitive fluorescent dye, in this case Fluo-4. In the case of partial agonist or agonist ligands, addition of compound to the cells leads to the increase in intracellular Ca^+2 which is detected by FLIPR (Fluorescence Imaging Plate Reader; Molecular Devices, Sunnyvale, Calif.) technology. […] The fluorescence intensities measured before addition of the test compound are subtracted from the fluorescence intensities at later time points. Peak response values determined at each concentration of ligand are expressed as a percentage of the response obtained with the full agonist histamine. Concentration versus response data are analyzed to obtain compound potency as Kb values for antagonists and inverse agonists and as EC50 values for partial agonists.

thermal hyperalgesia = assay: Complete Freund's adjuvant-induced thermal hyperalgesia; format: in vivo, rat; conditions: 30 minutes before testing, 48 hours after CFA, thermal stimulus
Description: To assess the effectiveness of representative compounds of the invention against hyperalgesia, animals were tested in an acute model of adjuvant-induced thermal hyperalgesia (see for example, Honore, et al. Behavioural Brain Research 167 (2006) 355-364; Carroll, et al. US Patent application US 2006/0025614A 1). To prepare animals for the model, a solution of Complete Freund's adjuvant (150 microliters of a 50% aqueous solution, Sigma Chemical Company, St. Louis, Mo.) was injected into the plantar surface of test paw of the animal (rat). Rats so injected develop a hyperalgesia to thermal stimulation which is assessed 48 hours after injection of the Complete Freund's adjuvant using a commercially available paw thermal stimulator (UARDG, Dept. of Anesthesiology, Univ. California at San Diego, La Jolla, Calif.). For testing, rats were placed individually in a so-called ‘hot box’ (i.e. Plexiglass cubicles mounted on a glass surface) maintained at 30° C., and allowed a 30 minute habituation period. A thermal stimulus, in the form of radiant heat emitted from a focused projection bulb, was then applied to the plantar surface of each hind paw. The stimulus current was maintained (e.g. at 4.5 Amp) and the time of exposure set to limit the extent of possible tissue damage (e.g. maximum of 20 seconds exposure to thermal heating from the projection bulb). The time (in seconds) for the withdrawal of the paw that was injected with the Complete Freund's adjuvant (CFA) and subjected to the thermal stimulus was recorded, and this was compared to the time (in seconds) for withdrawal of the uninjected paw subjected to the same thermal stimulus. […] To test the effect of a compound on the hyperalgesia, the test compound is dissolved in a vehicle (e.g. water or saline) and administered by i.p. (intraperitoneal) injection 30 minutes before the testing of the animal's response to the thermal stimulus to the paws. The antihyperalgesic activity of the compound in blocking the pain is shown by an increase in the time to withdraw the CFA-injected paw subjected to thermal stimulus. Experiments are done with single-dose and escalating-dosages of the test compound, and dose response curves constructed to determine ED50 values.

inflammatory pain = assay: Carrageenan-induced thermal hyperalgesia, hotbox assay; format: in vivo; conditions: 90 minutes after carrageenan, tested 30 minutes after dosing
Description: To assess the effectiveness of representative compounds of the invention against acute model inflammatory pain, animals were tested in an acute model of carrageenan-induced thermal hyperalgesia (see for example, Honore, et al. Behavioural Brain Research 167 (2006) 355-364; Porreca, et al. Journal of Pharmacology and Experimental Therapeutics (2006) vol. 318 pp. 195-205). Carrageenan was injected into the test paw of the animal, and after 90 minutes, the test drug was administered by intraperitoneal dosing. The effect on thermal hyperalgesia was assessed in a hotbox assay which was done 30 minutes after the intraperitoneal dosing of the test drug, and the MPE (maximal percent effect) reported by comparison to the control paw (not injected with carrageenan), according to 100 times the withdrawal latency of the carrageenan injected paw (in seconds) divided by the withdrawal latency of the control (not injected with carrageenan) paw.

neuropathic pain = assay: Chung model: L5/L6 spinal nerve ligation, mechanical allodynia by von Frey filaments; format: in vivo, rat; conditions: 100 micromole/kg i.p., 30 minutes before testing
Description: Animals were prepared for testing, by use of a surgical procedure that induces neuropathic pain in one paw. Male Sprague Dawley rats were purchased from Charles River (Portage, Mich.). Prior to surgery, animals were housed in groups and maintained in a temperature-regulated environment. Following nerve ligation surgery, animals were housed in groups, and had access to food and water ad libitum.
The L5 and L6 spinal nerves of anesthetized rats were tightly ligated in a manner described previously (see Kim and Chung, Pain (1992) vol. 50 pp. 355-363). An incision was made on the dorsal portion of the hip and the muscle was blunt-dissected to reveal the spinal processes. The L6 transverse process was removed, and the left side L5 and L6 spinal nerves were tightly ligated with 5.0 braided silk suture. The wound was cleaned, the membrane sewn with 4.0 dissolvable Vicryl suture and the skin closed with wound clips. The paw affected by the surgical procedure (the left paw) develops an allodynic response, a hypersensitivity to mechanical and other stimuli; neuropathic pain is assessed as an increased sensitivity in the surgically affected (left) allodynic paw compared to the control paw on the right side, and measured by comparing the response of the (left side) allodynic paw to the response of the unaffected right side control paw.
For the assessment of neuropathic pain, mechanical allodynia in the affected paw of animals that had undergone spinal nerve ligation was evaluated using testing with von Frey filaments. As described previously by S. R. Chaplan, et al (“Quantitative assessment of tactile allodynia in the rat paw” J. Neurosci. Meth. (1994) vol. 53 pp. 55-63), two weeks following surgery rats were acclimated to a testing box constructed of plexiglass with a wire mesh floor which allowed access to the plantar surface of the animal's hindpaws. Using an Up-Down method (Dixon, Annual Rev. Pharmacol. Toxicol. (1980) vol. 20, pp. 441-462; Chaplan et al. “Quantitative assessment of tactile allodynia in the rat paw” J. Neuroscience Methods (1994) vol. 53 pp. 55-63), von Frey filaments of increasing stiffness were applied to the plantar surface of the hindpaws and the withdrawal response of the animals was observed; for the surgically affected paw with neuropathic pain (the left side paw) the baseline level of allodynia has a withdrawal threshold of ≦4 g of pressure. By comparison, for the control paw without allodynia (in this case the right side paw), the typical withdrawal pressure is around 15 g. Representative compounds of the invention, administered intraperitoneally 30 minutes before testing, are able to reduce the symptoms of neuropathic pain and induce a dose-dependent increase in the withdrawal threshold for allodynic (left side) limb, up to a maximum effect of 15 g. The efficacy of the compound in reducing neuropathic pain at different doses is determined by comparing response in the surgery-affected paw versus the response in the control paw. This is expressed as the MPE (maximum percent effect), or 100 times the withdrawal threshold of the allodynic (left side) divided by the withdrawal threshold of the control (right side).

[3] = test system: mechanical allodynia after skin incision; assay: Surgical skin incision model, mechanical allodynia by von Frey hair; format: in vivo, rat
Description: This is a surgical skin incision model (Joshi, et al. Pain 123 (2006) 75-82). Animals (rats) were prepared for testing by subjecting them to a surgical procedure carried out under sterile conditions, where the plantaris muscle was elevated and incised longitudinally with the origin and insertion of the muscle remaining intact. The skin was then closed with two mattress sutures (e.g. 5-0 nylon sutures). After surgery, animals were allowed to recover on a warming plate and housed individually in cages with soft bedding. […] Animals were tested for mechanical allodynia using von Frey hair mechanical stimulation 2, 24, and 48 h after surgery as described for the Chung model.

osteoarthritis pain = assay: MIA-induced knee joint osteoarthritis model, hind limb grip force; format: in vivo, rat; conditions: 100 micromole/kg i.p.; grip force 20 days after MIA; % return to normalcy vs naïve group
Description: Unilateral knee joint osteoarthritis was induced in rats by a single intra-articular (i.a.) injection of sodium monoiodoacetate (MIA) (Sigma-Aldrich, St. Louis, Mo.) (3 mg in 50 ul sterile isotonic saline) into the right knee joint cavity under light (1-3%) isoflurane anesthesia.
Pain behavior was assessed by measurement of hind limb grip force (GF) in adult osteoarthritic rats. Following the unilateral injection of MIA (male Sprague Dawley, 325-350 g, tested at 20 days following MIA injection), a behavioral measure of activity-induced pain was carried out. Measurements of the peak hind limb grip force were conducted by recording the maximum compressive force (CFmax), in grams of force, exerted on a hind limb strain gauge setup, in a commercially available grip force measurement system (Columbus Instruments, Columbus, Ohio).
During testing, each rat was gently restrained by grasping it around its rib cage and then allowed to grasp the wire mesh frame attached to the strain gauge. The experimenter then moved the animal in a rostral-to-caudal direction until the grip was broken. Each rat was sequentially tested twice at approximately 2-3 min interval to obtain a raw mean grip force (CFmax). This raw mean grip force data was in turn converted to a maximum hindlimb cumulative compressive force (CFmax), as the grams of force/kg of body weight, for each animal.
For evaluating the compound effects, the hind limb grip force was conducted 20 days following the intra-articular injection of MIA. A group of age-matched naïve (not injected with MIA) animals was added as a comparator to the drug-dosed groups. The vehicle control response for each group of MIA-treated animals was defined as the 0% response (0% effect), whereas the naïve control group was defined as the normal response and as 100% effect. The % effects for each dose group was expressed as % return of response to normalcy, compared to the naïve group. That is, the % effect=(Treatment CFmax−Vehicle CFmax)/[…]]×100). All experiments evaluating drug effects in this model were conducted in a randomized blinded fashion.

[4] = displacement of [3H]-histamine, 25° C., 1 h, read-out: Potency in Competition Binding Assay

melting point: 175 to 178 °C (dec.)
Ki (histamine H4 receptor [1]; [4]): 178 nM
Potency in the FLIPR assay (histamine H4 receptor [2]): 200 nM
SMILES: CN1CCN(c2cc(-c3cccnc3)nc(N)n2)CC1.O=C(O)/C=C\C(=O)O [Example 2, 4-(4-Methylpiperazin-1-yl)-6-(pyridin-3-yl)pyrimidin-2-amine, maleate]
MPE (thermal hyperalgesia; 30 micromole/kg i.p.): 51%
MPE (thermal hyperalgesia; 100 micromole/kg i.p.): 83%

SMILES: Nc1nc2c(c(N3CC[C@@H](N)C3)n1)CCCc1ccccc1-2 [Example 4, 4-((3R)-3-Amino-pyrrolidin-1-yl)-6,7-dihydro-5H-benzo[6,7]cyclohepta[1,2-d]pyrimidin-2-ylamine]
MPE (inflammatory pain; 100 micromole/kg i.p.): 68%
MPE (neuropathic pain): 47%

Ki (histamine H4 receptor [1]; [4]): 80 nM
Potency in the FLIPR assay (histamine H4 receptor [2]): 15 nM
SMILES: Nc1nc2c(c(N3CCNCC3)n1)CCCc1ccccc1-2 [Example 5, 4-piperazin-1-yl-6,7-dihydro-5H-benzo[6,7]cyclohepta[1,2-d]pyrimidin-2-ylamine]
MPE (inflammatory pain; 100 micromole/kg i.p.): 23%
MPE (neuropathic pain): 28%

SMILES: O=S(=O)(NCCc1c[nH]cn1)NCc1ccc(Cl)c(Cl)c1 [Example 7, Sulfamide, N-[(3,4-dichlorophenyl)methyl]-N′-[2-(1H-imidazol-4-yl)ethyl]-]
MPE ([3]; 3 micromole/kg i.p.): 33%
MPE ([3]; 10 micromole/kg i.p.): 50%
MPE (inflammatory pain; 3 micromole/kg i.p.): 33%
MPE (inflammatory pain; 10 micromole/kg i.p.): 42%
MPE (inflammatory pain; 30 micromole/kg i.p.): 93%
% Effect (osteoarthritis pain): 22%
Ki (histamine H4 receptor [1]): 33 nM
Potency in the FLIPR assay (histamine H4 receptor [2]): 34 nM
